Values joined by “and” are separate entries in the source; they are usually repeats but may differ in a detail not shown here. Identical values can stand only once.
Test system: Fasciola hepatica
Experiment: Trial in sheep artificially infected with Fasciola hepatica (faecal egg counts and adult helminth counts at necropsy)
Format: in vivo, Schafe
Conditions: for adulte Helminthen Mittelwert: group mean of 4 sheep; for EPG 12. Woche / EPG 13. Woche / adulte Helminthen Anzahl: sheep, individual animals; for EPG 12. Woche: 12th week after infection; for EPG 13. Woche: 13th week after infection; for adulte Helminthen Anzahl: at necropsy; for adulte Helminthen Reduktion in %: versus untreated control animals
Experimental: Versuch an mit Fasciola hepatica und Nematoden […] von Fasciola hepatica infiziert. Zu diesem Zweck […] in einer wässrigen 0,4%igen Suspension von Carboxymethylcellulose direkt in den Rumen […] oral mit je 10.000 bzw. 5.000 […] 3) von […] Trichostrongylus colubriformis und Haemonchus contortus infiziert. Für die Medikierung wurden die Versuchstiere in gleichgrossen Gruppen und in […], in denen der Anteil von Wirkstoff der Formel 1 2-5 mg/kg und der Anteil Wirkstoff der Formel II 3-7 mg/kg betrugen, an die […] in Gehegeboxen unter Normalbedingungen gehalten. Zur […] in bestimmten Zeitinvervallen nach Infizierung und Medikierung die mit dem Kot […] und die […]. Die erhaltenen Resultate […] und der Kontrollgruppen wurden für die Auswertung verglichen. Indikation: Fasciola hepatica […]): 19

| SMILES | adulte Helminthen Mittelwert (I 2,5 mg/kg) | EPG 12. Woche (I 2,5 mg/kg) | EPG 13. Woche (I 2,5 mg/kg) | adulte Helminthen Anzahl (I 2,5 mg/kg) | adulte Helminthen Reduktion in % (I 2,5 mg/kg) | adulte Helminthen Mittelwert (II 6,75 mg/kg) | EPG 12. Woche (II 6,75 mg/kg) | EPG 13. Woche (II 6,75 mg/kg) | adulte Helminthen Anzahl (II 6,75 mg/kg) | adulte Helminthen Reduktion in % (II 6,75 mg/kg) |
| --- | --- | --- | --- | --- | --- | --- | --- | --- | --- | --- |
| CSc1nc2cc(Cl)c(Oc3cccc(Cl)c3Cl)cc2[nH]1 [Substanz I, 5-Chlor-6-(2',3'-dichlorphenoxy)-2-methylthiobenzimidazol] | 48,5 | 210 Eier pro gr Faeces and 160 Eier pro gr Faeces and 120 Eier pro gr Faeces and 20 Eier pro gr Faeces | 130 Eier pro gr Faeces and 160 Eier pro gr Faeces and 180 Eier pro gr Faeces and 15 Eier pro gr Faeces | 58 and 65 and 51 and 20 | 52,7% |  |  |  |  |  |
| c1ccc([C@H]2CN3CCSC3=N2)cc1 [Substanz II, L-(-)-2,3,5,6-Tetrahydro-6-phenylimidazo[2,1-b]-thiazol] |  |  |  |  |  | 92,8 | 225 Eier pro gr Faeces and 990 Eier pro gr Faeces and 160 Eier pro gr Faeces and 226 Eier pro gr Faeces | 810 Eier pro gr Faeces and 1140 Eier pro gr Faeces and 250 Eier pro gr Faeces (2×) | 103 and 108 and 71 and 89 | 9,6% |

Reference: patent EP0101412A2, “Anthelmintics” (CIBA-GEIGY AG, priority 1982, dated 1984)
